Laboratory results taken from publication PMC10606833, “A Comprehensive Study on the Chemical Characterization and Neuroprotective Evaluation of Pracaxi Nuts Extracts Obtained by a Sustainable Approach” (Foods, 2023).

Tests used:
[1] = ROS scavenging capacity, oxygen radical absorbance capacity (ORAC) assay; format: biochemical; details: optimized PLE extracts and reference standard (Table 2)
Description: (§1) The ROS scavenging capacity of the PLE extracts obtained from pracaxi nuts cake was measured using the oxygen radical absorbance capacity (ORAC) assay previously described. Ascorbic acid and 10% EtOH (v/v) were used as reference standard and blank control solutions, respectively. Complementary, the RNS scavenging capacity was estimated referring to the nitric oxide (NO) radical scavenging assay. Ascorbic acid was used as the reference standard and 25% EtOH was used as blank control solution. The AChE and BChE inhibitory activities of pracaxi nuts cake PLE extracts were estimated according to the fluorescent enzyme kinetic method described by Sanchez-Martinez et al.. […] Finally, the LOX inhibitory activity of pracaxi nuts cake PLE extracts was determined as described in [26], with slight modifications.

[2] = RNS scavenging capacity, nitric oxide (NO) radical scavenging assay; format: biochemical; details: optimized PLE extracts and reference standard (Table 2)
Description: as §1

O=C1O[C@H]([C@@H](O)CO)C(O)=C1O [Ascorbic acid, ascorbic acid]
ROS (IC50) [1]: 3.2 ± 0.2 µg/mL
RNS (IC50) [2]: 1120 ± 16 µg/mL
